Measured values taken from US11186564B2, “Dual NAV1.2/5HT2a inhibitors for treating CNS disorders” (Sunovion Pharmaceuticals Inc., priority 2016, dated 2021).
Where two headings read alike, the source gives them in different places.

How the values were obtained:
[1] = molecular target: T1, recombinant human serotonin receptor 5-HT2A (Homo sapiens, UniProt P28223); assay: 5-HT2A antagonist Ca2+ assay in CHO-K1 cells (method A aequorin luminescence / method B FLIPR fluorescence); assay type: cell-based; settings: antagonist mode vs EC80 of reference agonist, method A or B, read-out: 5HT2A IC50
T1 construct: expressed in transfected cells; method B: loaded with Ca2+ dye
Method in brief: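 Method A: CHO-K1 cells co-expressing human 5-HT2A and mitochondrial apoaequorin were given reference agonist at EC80 15 min after compound, with luminescence read. Method B: dye-loaded 5-HT2A CHO-K1 cells were pretreated with compound, then given serotonin at EC80, with FLIPR fluorescence read. IC50s came from nonlinear fits of percent inhibition.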

[2] = molecular target: human sodium channel NaV1.2 (Homo sapiens, UniProt Q99250); assay: NaV1.2 inhibition, automated patch-clamp (Q-Patch HTX), slow inactivated state (state C); assay type: cell-based; settings: for inhibition at 10 µM: 10 μM compound, read-out: NaV1.2 (% inh), 10 μM; for inhibition at 1 µM: 1 μM compound, read-out: NaV1.2 (% inh), 1 μM
Source text: In vitro method for NaV1.2 inhibition assays: The methods utilized to assess the inhibitory activity of compounds on NaV1.2 were based on the methods described by Liu et al. [Liu Y, Beck E J, & Flores C M (2011): Validation of a patch clamp screening protocol that simultaneously measures compound activity in multiple states of the voltage-gated sodium channel Nav1.2. Assay Drug Development Technology 9, 628-634]. For these electrophysiology assays, a cell line (Chinese Hamster Ovarian K-1 cells (CHO K-1)) engineered to stably express human sodium channel NaV1.2 was purchased from Millipore Corporation (catalog no. CYL3023). The electrophysiology measurements were performed using automated patch-clamp methods on a Q-Patch HTX instrument by scientists at Evotec AG under contract with Sunovion.
The solutions utilized for the Qpatch experiments were similar buffered solutions to those described by Liu et al. [Liu Y, Beck E J, & Flores C M (2011)]. The extracellular solution contained 140 millimolar sodium chloride, 4 millimolar potassium chloride, 2 millimolar calcium chloride, 1 millimolar magnesium chloride, 10 millimolar 4-(2-hydroxyethyl)-1-piperazineethanesulfonic acid (HEPES), and 10 millimolar glucose (pH adjusted to 7.4 with sodium hydroxide). The intracellular solution contained 100 millimolar cesium fluoride, 45 millimolar cesium chloride, 10 millimolar HEPES, 5 millimolar ethylene glycol tetraacetic acid (EGTA), and 5 millimolar glucose (pH adjusted to 7.2 with cesium hydroxide).
The biophysical experiments of Lui et al. [Liu Y, Beck E J, & Flores C M (2011)] were replicated to assess the fast, slow and total inactivation characteristics of the human Nav1.2 channel
Based upon results from studies of the fast, slow and total inactivation characteristics of the human Nav1.2 channel, a voltage protocol involving a sequence of consecutive pulses of current was used to measure channel activity in several states [Liu Y, Beck E J, & Flores C M (2011)]. The monolayer of CHO K-1 cells stably expressing human sodium channel NaV1.2 (hNaV1.2 CHO cells) was maintained in the Qpatch instrument at a potential of −100 millivolts (mV) except when the voltage protocol was being executed. The first pulse in the protocol involved a 100 millisecond depolarization to 0 mV to enable measurement of channel availability in the closed state (state A). The potential was then maintained at −90 mV for 15 milliseconds, followed by a five millisecond period of depolarization to 0 mV to enable measurement of channel availability after partial recovery from fast inactivation (state B). Next, the potential was maintained at −90 mV for 300 milliseconds, followed by ten seconds at −50 mV, 15 milliseconds at −90 mV, and finally another five millisecond period of depolarization to 0 mV to enable measurement of channel availability after additional recovery from fast inactivation and significant entry into the slow inactivated state (state C). Finally, after an additional 300 millisecond period at −90 mV, another five millisecond period of depolarization to 0 mV was employed to enable measurement of channel availability after partial recovery from the slow inactivated state (state D). Measurements of activity at state C were used to assess the activity of the NaV1.2 channel in the slow inactivated state. Comparison of activity after addition of test compounds or reference compounds with activity after addition of vehicle only provided a measure of percent remaining activity from which percent inhibition was calculated. […] A slight modification of this protocol was utilized to provide measurements as a function of compound concentration, which enabled IC50 values to be determined. IC50 values were calculated by non-linear least squares regression of the data (percent inhibition of ion channel NaV1.2 activity in the slow inactivated state) onto equation (1): % inhibition=100%/(1+(IC50/[compound]) equation (1)
J Pharmacol Exp Ther. 2008 July; 326(1):89-99.].

[3] = hNaV1.2 CHO cells, slow inactivated state, read-out: NaV1.2 IC50
[4] = hNaV1.2 CHO cells, slow inactivated state

T1 sequence (P28223 whole entry): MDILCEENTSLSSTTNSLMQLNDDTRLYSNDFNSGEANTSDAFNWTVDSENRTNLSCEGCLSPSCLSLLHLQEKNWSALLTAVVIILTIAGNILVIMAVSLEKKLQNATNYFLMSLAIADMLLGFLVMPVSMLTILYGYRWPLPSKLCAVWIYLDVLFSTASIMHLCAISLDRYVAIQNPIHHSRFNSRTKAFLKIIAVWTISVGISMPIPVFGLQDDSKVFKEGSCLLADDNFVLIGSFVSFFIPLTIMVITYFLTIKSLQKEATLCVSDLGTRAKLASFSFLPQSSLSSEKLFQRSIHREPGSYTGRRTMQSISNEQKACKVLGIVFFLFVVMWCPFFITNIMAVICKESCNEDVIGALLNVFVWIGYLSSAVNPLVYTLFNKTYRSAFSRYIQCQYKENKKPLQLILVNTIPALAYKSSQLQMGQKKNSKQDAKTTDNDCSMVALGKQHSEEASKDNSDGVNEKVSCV
human sodium channel NaV1.2, sequence (Q99250 whole entry): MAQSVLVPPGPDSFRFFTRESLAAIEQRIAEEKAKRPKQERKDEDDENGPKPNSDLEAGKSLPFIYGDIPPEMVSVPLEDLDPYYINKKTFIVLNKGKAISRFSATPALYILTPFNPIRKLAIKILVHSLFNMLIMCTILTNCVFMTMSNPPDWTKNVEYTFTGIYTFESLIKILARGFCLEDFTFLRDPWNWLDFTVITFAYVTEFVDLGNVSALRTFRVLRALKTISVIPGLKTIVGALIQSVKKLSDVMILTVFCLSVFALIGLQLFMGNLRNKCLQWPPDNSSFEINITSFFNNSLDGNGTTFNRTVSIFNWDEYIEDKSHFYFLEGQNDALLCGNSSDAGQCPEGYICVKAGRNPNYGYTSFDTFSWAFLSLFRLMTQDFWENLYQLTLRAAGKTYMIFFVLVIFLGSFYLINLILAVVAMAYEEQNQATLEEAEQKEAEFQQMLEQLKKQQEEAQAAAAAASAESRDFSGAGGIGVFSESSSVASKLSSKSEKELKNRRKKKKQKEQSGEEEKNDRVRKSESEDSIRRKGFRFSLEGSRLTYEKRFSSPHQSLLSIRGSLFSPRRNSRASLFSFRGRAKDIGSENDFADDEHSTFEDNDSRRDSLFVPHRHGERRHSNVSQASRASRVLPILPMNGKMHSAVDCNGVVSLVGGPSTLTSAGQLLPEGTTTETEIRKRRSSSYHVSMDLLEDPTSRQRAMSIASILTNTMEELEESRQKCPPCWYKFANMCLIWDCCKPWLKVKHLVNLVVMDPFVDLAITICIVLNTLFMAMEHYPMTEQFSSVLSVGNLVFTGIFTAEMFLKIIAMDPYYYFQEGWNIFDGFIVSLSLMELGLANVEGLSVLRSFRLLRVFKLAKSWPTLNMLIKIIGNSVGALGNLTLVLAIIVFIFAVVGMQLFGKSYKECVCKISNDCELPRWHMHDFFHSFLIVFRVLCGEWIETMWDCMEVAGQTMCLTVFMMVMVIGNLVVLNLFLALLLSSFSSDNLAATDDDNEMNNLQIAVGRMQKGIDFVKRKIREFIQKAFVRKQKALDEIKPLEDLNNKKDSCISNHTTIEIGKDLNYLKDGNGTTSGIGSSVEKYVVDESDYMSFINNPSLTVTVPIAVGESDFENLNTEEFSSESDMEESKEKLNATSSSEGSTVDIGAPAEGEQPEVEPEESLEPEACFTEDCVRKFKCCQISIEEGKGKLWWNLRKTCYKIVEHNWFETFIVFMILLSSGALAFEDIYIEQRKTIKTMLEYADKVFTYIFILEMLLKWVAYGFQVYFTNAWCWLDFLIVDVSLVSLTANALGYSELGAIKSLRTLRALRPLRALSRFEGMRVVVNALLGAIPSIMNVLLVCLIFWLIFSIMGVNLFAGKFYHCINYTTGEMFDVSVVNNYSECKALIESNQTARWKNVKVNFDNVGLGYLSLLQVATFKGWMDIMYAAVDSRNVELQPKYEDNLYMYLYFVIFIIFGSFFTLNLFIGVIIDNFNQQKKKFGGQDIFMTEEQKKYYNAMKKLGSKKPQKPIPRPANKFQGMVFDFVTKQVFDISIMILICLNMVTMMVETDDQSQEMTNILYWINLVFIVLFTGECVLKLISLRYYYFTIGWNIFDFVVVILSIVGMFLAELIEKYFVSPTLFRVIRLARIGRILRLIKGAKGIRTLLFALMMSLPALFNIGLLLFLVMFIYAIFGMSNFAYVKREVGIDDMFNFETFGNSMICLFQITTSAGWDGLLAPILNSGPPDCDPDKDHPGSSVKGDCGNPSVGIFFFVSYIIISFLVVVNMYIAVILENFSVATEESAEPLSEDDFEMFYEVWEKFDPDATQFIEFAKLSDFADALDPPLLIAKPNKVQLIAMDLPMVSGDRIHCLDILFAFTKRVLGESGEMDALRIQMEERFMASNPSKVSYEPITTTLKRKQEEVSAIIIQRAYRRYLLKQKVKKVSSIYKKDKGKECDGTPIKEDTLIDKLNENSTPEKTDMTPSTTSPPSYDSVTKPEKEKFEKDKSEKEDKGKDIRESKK

Structure (SMILES) | IC50 [1] | inhibition at 10 µM [2, 4] | IC50 [2, 3] | other results
OC(CO[C@@H]1CCc2ccccc21)CN1CCC(Oc2ccc(F)cc2)CC1 (stereo partly drawn) [Example 236, 1-(((R)-2,3-dihydro-1H-inden-1-yl)oxy)-3-(4-(4-fluorophenoxy)piperidin-1-yl)propan-2-ol] | 350 nM |  | 0.55 µM | 
c1ccc2c(c1)CCC1(CCN(CCC3COCc4ccccc43)CC1)O2 (stereo not drawn) [Example 421, 1′-(2-(isochroman-4-yl)ethyl)spiro[chromane-2,4′-piperidine]] | 130 nM |  |  | inhibition at 1 µM [2, 4]: 29%
C1=C(c2ccccc2)COC12CN(CC1CCc3ccccc31)C2 (stereo not drawn) [Example 358, 2-((2,3-dihydro-1H-inden-1-yl)methyl)-7-phenyl-5-oxa-2-azaspiro[3.4]oct-7-ene] | 870 nM |  | > 10 µM | 
Cc1cccc(N2CCN(CC(O)COC3COc4cccnc43)CC2)c1C (stereo not drawn) [Example 82, 1-((2,3-dihydrofuro[3,2-b]pyridin-3-yl)oxy)-3-(4-(2,3-dimethylphenyl)piperazin-1-yl)propan-2-ol] | 40 nM |  | 1.35 µM | 
c1ccc2c(c1)CC1(CCN(CC3CCc4ccccc43)CC1)CO2 (stereo not drawn) [Example 442, 1′-((2,3-dihydro-1H-inden-1-yl)methyl)spiro[chromane-3,4′-piperidine]] | 590 nM |  |  | inhibition at 1 µM [2, 4]: 37%
O=C1c2ccccc2CCCN1CCN1CCC(Oc2ccc(F)cc2)CC1 [Example 208, 2-(2-(4-(4-fluorophenoxy)piperidin-1-yl)ethyl)-2,3,4,5-tetrahydro-1H-benzo[c]azepin-1-one] | 10 nM |  | 1.21 µM | 
Fc1ccc(OC2CCN(CCC3CCc4ccccc43)CC2)cc1 (stereo not drawn) [Example 171, 1-(2-(2,3-dihydro-1H-inden-1-yl)ethyl)-4-(4-fluorophenoxy)piperidine] | 60 nM |  | 0.04 µM | 
OC(COC1CCCCC1)CN1CC[C@H]2C[C@@H]1CN2c1ccccc1 (stereo partly drawn) [Example 325, 1-(cyclohexyloxy)-3-((1R,5S)-6-phenyl-2,6-diazabicyclo[3.2.1]octan-2-yl)propan-2-ol] | 250 nM |  | 0.22 µM | 
Fc1ccc(O[C@H]2CCN(CC3CCc4cccnc43)C2)cc1 (stereo partly drawn) [Example 8, 7-(((S)-3-(4-fluorophenoxy)pyrrolidin-1-yl)methyl)-6,7-dihydro-5H-cyclopenta[b]pyridine] | 980 nM |  | 7.45 µM | 
O[C@@H](CO[C@@H]1CCc2ccccc21)CN1CC[C@@H](Oc2ccc(F)cc2)C1 [Example 47, (R)-1-(((R)-2,3-dihydro-1H-inden-1-yl)oxy)-3-((R)-3-(4-fluorophenoxy)pyrrolidin-1-yl)propan-2-ol] | 100 nM |  | 0.36 µM | 
NCCOc1ccc2c(c1)C(CN1CCC(Oc3ccc(F)cc3)CC1)CC2 (stereo not drawn) [Example 114, 2-((3-((4-(4-fluorophenoxy)piperidin-1-yl)methyl)-2,3-dihydro-1H-inden-5-yl)oxy)ethan-1-amine] | 70 nM | 52% |  | 
O=C1c2ccccc2CCN1CCN1CCC2(CCc3ccccc3O2)CC1 [Example 422, 2-(2-(spiro[chromane-2,4′-piperidin]-1′-yl)ethyl)-3,4-dihydroisoquinolin-1(2H)-one] | 70 nM |  | 0.4 µM | 
Fc1ccc(OC2CCN(CCC3COc4cccnc43)CC2)cc1 (stereo not drawn) [Example 177, 3-(2-(4-(4-fluorophenoxy)piperidin-1-yl)ethyl)-2,3-dihydrofuro[3,2-b] pyridine] | 10 nM |  |  | inhibition at 1 µM [2, 4]: 34%
COc1ccc2c(c1)C(CN1CCN(c3ccccc3)CC1)CC2 (stereo not drawn) [Example 54, 1-((6-methoxy-2,3-dihydro-1H-inden-1-yl)methyl)-4-phenylpiperazine] |  |  | 2.64 µM | 
c1ccc(CCN2CCC3(CCc4ccccc4O3)CC2)cc1 [Example 427, l′-phenethylspiro[chromane-2,4′-piperidine]] |  | 81% |  | 
CN1CCN(c2ncc(-c3cc(Cl)cc(Cl)c3Cl)c(N)n2)CC1 [sipatrigine] |  |  |  | IC50 ([2]; reference compound, Test 1, read-out: IC50 (μM) for NaV1.2 slow inactivated state, Test 1): 1.6 µM; IC50 ([2]; reference compound, Test 2, read-out: IC50 (μM) for NaV1.2 slow inactivated state, Test 2): 2.8 µM; IC50 ([2]; reference compound, Test 3, read-out: IC50 (μM) for NaV1.2 slow inactivated state, Test 3): 0.6 µM; IC50 ([2]; reference compound, Test 4, read-out: IC50 (μM) for NaV1.2 slow inactivated state, Test 4): 0.5 µM

More lines, main results first:

IC50 [1] | inhibition at 10 µM [2, 4] | Structure (SMILES) | IC50 [2, 3] | other results
30 nM | 68% | O=C1c2ccccc2CCCN1CCCN1CCC(Oc2ccc(F)cc2)CC1 [Example 223, 2-(3-(4-(4-fluorophenoxy)piperidin-1-yl)propyl)-2,3,4,5-tetrahydro-1H-benzo[c]azepin-1-one] |  | 
890 nM | 55% | O=C(CN1CCN(c2cccc(Cl)c2)CC1)c1ccccc1 [Example 66, 2-(4-(3-chlorophenyl)piperazin-1-yl)-1-phenylethan-1-one] |  | 
270 nM | 50% | CN(C)Cc1ccc2c(c1)C(=O)N(CCN1CCC(Oc3ccc(F)cc3)CC1)CCC2 [Example 211, 8-((dimethylamino)methyl)-2-(2-(4-(4-fluorophenoxy)piperidin-1-yl)ethyl)-2,3,4,5-tetrahydro-1H-benzo[c]azepin-1-one] |  | 
100 nM |  | Fc1ccc(N2CCC3(CCN(CC4Cc5ccccc5C4)C3)C2)cc1 (stereo not drawn) [Example 340, 2-((2,3-dihydro-1H-inden-2-yl)methyl)-7-(4-fluorophenyl)-2,7-diazaspiro[4.4]nonane] |  | inhibition at 1 µM [2, 4]: 25%
> 5300 nM | 48% | OC(COC1CCCCC1)CN1C[C@H]2C[C@@H]1CN(Cc1ccccc1)C2 (stereo partly drawn) [Example 318, 1-((1S,5R)-3-benzyl-3,6-diazabicyclo[3.2.1]octan-6-yl)-3-(cyclohexyloxy)propan-2-ol] |  | 
90 nM |  | O=C1CCC(c2ccc(F)cc2)=NN1CN1CCC(Oc2ccc(F)cc2)CC1 [Example 167, 2-((4-(4-fluorophenoxy)piperidin-1-yl)methyl)-6-(4-fluorophenyl)-4,5-dihydropyridazin-3(2H)-one] |  | inhibition at 1 µM [2, 4]: 13%
160 nM |  | C[C@@H]1C[C@@]2(CCc3ccccc3O2)CCN1CCN1CCc2ccccc2C1=O [Example 426, 2-(2-((2R,2′R)-2′-methylspiro[chromane-2,4′-piperidin]-1′-yl)ethyl)-3,4-dihydroisoquinolin-1(2H)-one] |  | inhibition at 1 µM [2, 4]: 41%
40 nM | 93% | Clc1cccc(N2CCN(CCc3ccccc3)CC2)c1 [Example 64, 1-(3-chlorophenyl)-4-phenethylpiperazine] |  | 
2 nM | 91% | Fc1ccc(OCCCN2CCN(c3nsc4ccccc34)CC2)cc1 [Example 73, 3-(4-(3-(4-fluorophenoxy)propyl)piperazin-1-yl)benzo[d]isothiazole] |  | 
50 nM | 72% | Fc1ccc(OC2CCN(CC3CCc4cccnc43)CC2)cc1 (stereo not drawn) [Example 128, 7-((4-(4-fluorophenoxy)piperidin-1-yl)methyl)-6,7-dihydro-5H-cyclopenta[b]pyridine] |  | 
5310 nM |  | COc1ccc2c(c1)C(CN1CC3CC(C1)N(c1ccccc1)C3)CC2 (stereo not drawn) [Example 328, 3-((6-methoxy-2,3-dihydro-1H-inden-1-yl)methyl)-6-phenyl-3,6-diazabicyclo[3.2.1]octane] |  | inhibition at 1 µM [2, 4]: 31%
